From publication PMC9411522, “Ginsenoside Rg5 allosterically interacts with P2RY12 and ameliorates deep venous thrombosis by counteracting neutrophil NETosis and inflammatory response” (Frontiers in Immunology, 2022)
pKd: −log10 of the molar value.

What was measured:
P2RY12 [1] = target: T1, P2RY12 (Homo sapiens, UniProt Q9H244); test: SPR (Biacore T200, His-captured purified P2RY12, steady-state affinity); antagonism of 2MesADP signalling in CHO-P2RY12 cells; format: binding
P2RY12 [2] = target: T1, P2RY12; test: biochemical

T1 sequence (Q9H244 whole entry, one chain of several): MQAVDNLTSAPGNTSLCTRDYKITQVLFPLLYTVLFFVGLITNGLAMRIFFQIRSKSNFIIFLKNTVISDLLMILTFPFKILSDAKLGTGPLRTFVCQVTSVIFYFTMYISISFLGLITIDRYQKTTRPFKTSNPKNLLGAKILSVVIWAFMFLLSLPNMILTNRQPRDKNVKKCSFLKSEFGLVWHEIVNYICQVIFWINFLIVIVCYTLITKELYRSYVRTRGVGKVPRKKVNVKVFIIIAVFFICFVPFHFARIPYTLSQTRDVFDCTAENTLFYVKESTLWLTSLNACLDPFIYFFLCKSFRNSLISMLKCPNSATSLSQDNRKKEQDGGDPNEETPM

pKd (P2RY12 [2]) | Compound | pKd (P2RY12 [1])
– | CC(C)=CC/C=C(\C)[C@H]1CC[C@]2(C)[C@@H]1[C@H](O)C[C@@H]1[C@@]3(C)CC[C@H](O[C@@H]4O[C@H](CO)[C@@H](O)[C@H](O)[C@H]4O[C@@H]4O[C@H](CO)[C@@H](O)[C@H](O)[C@H]4O)C(C)(C)[C@@H]3CC[C@]12C [Rg5, Ginsenoside Rg5] | 6.48
6.99 | CCCSc1nc(N[C@@H]2C[C@H]2c2ccc(F)c(F)c2)c2nnn([C@@H]3C[C@H](OCCO)[C@@H](O)[C@H]3O)c2n1 [Ticagrelor] | –
